Experiment [1] deals with HCV genotype 1 to 6 replicons containing NS3 substitutions. In words: Transient replicon assay with engineered substitutions, summary over genotypes. Format: cell-based, Hepatitis C virus. How it is done: Mutagenesis was performed using a Change-IT multiple-mutation site-directed mutagenesis kit (USB, Cleveland, OH) or by cloning a synthesized DNA fragment encoding the amino acid substitution(s). The genotype 1a and 1b replicon shuttle vectors used for the introduction of the substitutions of interest in the NS3, NS5A, or NS5B gene for transient-transfection assays have been described previously ([28], [33]). The replicon shuttle vectors used for the introduction of substitutions in NS3 genes from other genotypes were similar to the stable replicon cell line constructs described above, except for the absence of the neo gene. After mutagenesis, the plasmids were linearized and RNA was transcribed and then used to transfect Huh-7 cells. Inhibition of HCV replication by the HCV inhibitors was measured by luciferase assay, as described above. Replication efficiency was calculated as a percentage of wild-type replication, as described previously ([28]).

For experiment [2], the system named is HCV replicons with genotype 2b patient proteases. In words: Transient replicon assay with proteases from HCV-infected patients. Format: cell-based. Particulars: Hepatitis C virus, read-out: EC50 Range. The text has this: (§1) Each of the NS3 gene sequences from genotypes 1, 2, and 4, with the exception of two genotype 2b sequences, was derived from serum or plasma from an HCV-infected patient by bulk PCR amplification, producing a population of sequences representing the viral quasispecies. Two genotype 2b sequences were synthesized based on the consensus sequences of the respective samples. One genotype 3a sequence was synthesized based on a consensus sequence from the sequences available in the Los Alamos HCV sequence database, and another genotype 3a sequence was a clonal sequence derived from a patient sample. The genotype 5a sequence (strain SA13) was synthesized based on the published sequence of the HCV isolate ([48]).
For the analysis of NS3 sequences from patients, we defined a polymorphism to be an amino acid difference in the sequence of a baseline sample relative to the sequence of the appropriate HCV subtype reference sequence: genotype 1a H77 (GenBank accession number NC_004102), genotype 1b Con1 (GenBank accession number AJ238799), genotype 2a JFH-1 (GenBank accession number AB047639), genotype 2b HC-J8 (GenBank accession number D10988), genotype 3a S52 (GenBank accession number GU814263), genotype 4a ED43 (GenBank accession number GU814265), genotype 4d QC382 (GenBank accession number FJ462437), and genotype 5a SA13 (GenBank accession number AF064490). […]
A general note: Replicon systems follow genome replication, usually without infectious particles.

Experiment [3] concerns HIV-1 IIIB strain. In words: HIV-1 antiviral cytoprotection assay, CEM-SS cells. Format: cell-based, human immunodeficiency virus type 1. Particulars: Human immunodeficiency virus 1, IIIB, read-out: Mean EC50 ± SD.
In experiment [4] the test system is HCV genotype 1. Particulars: 3-day monotherapy, daily doses of 100 to 700 mg, genotype 1 treatment-naive patients; cited from earlier work.
Experiment [5] has as its target HCV NS3/4A protease GT6a (Hepatitis C virus genotype 6a, UniProt O39927). In words: HCV NS3/4A protease biochemical assay. Particulars: 30 min preincubation, read-out: Mean IC50 ± SD. The text has this: (§2) . […] Genes encoding NS3/4A were derived from laboratory strains 1a-H77 (GenBank accession number NC_004102) and 1b-N (GenBank accession number AF139594) or from clinical samples from patients infected with genotype 2a, 2b, 3a, or 4a. All patients provided written informed consent. Clinical studies were designed according to Good Clinical Practice guidelines, the Declaration of Helsinki, and applicable local regulations, with independent ethics committee or institutional review board approval for all study sites. The genotype 5a NS3/4A gene sequence was synthetically constructed based on the sequence of the clinical isolate SA13 (GenBank accession number AF064490) ([48]), whereas the genotype 6a NS3/4A gene sequence was synthetically constructed based on a consensus sequence derived from the alignment of 15 genotype 6a sequences available in GenBank. The NS3/4A genes were each cloned into the protein expression vector pET14b (Novagen, Madison, WI), and a clone with an NS3/4A protease sequence that matched the consensus sequence for each sample was subsequently selected for protein expression and purification. Protease activity was measured by continuous monitoring of the fluorescence change associated with the cleavage of a fluorogenic depsipeptide (EDANS/DABCYL) substrate using a purified recombinant HCV NS3/4A protease as described previously ([49]). […]

Experiment [6] addresses HCV NS3/4A protease GT2b (Hepatitis C virus genotype 2b, UniProt P26661). Kind of experiment: HCV NS3/4A protease biochemical assay. Particulars: 30 min preincubation, read-out: Mean IC50 ± SD.
Text: as §2

Experiment [7] deals with HCV NS3/4A protease GT1b (Hepatitis C virus genotype 1b, UniProt Q9WPH5). In words: HCV NS3/4A protease biochemical assay. Particulars: 30 min preincubation, read-out: Mean IC50 ± SD.
Text: as §2

Experiment [8] concerns HCV replicons with genotype 4a patient proteases. In words: Transient replicon assay with proteases from HCV-infected patients. Format: cell-based. Particulars: Hepatitis C virus.
Text: as §1
Transient replicons containing NS3 from clinical samples from HCV genotype 1a- and 1b-infected patients were described previously ([28]).
For the analysis of NS3 sequences from patients, we defined a polymorphism to be an amino acid difference in the sequence of a baseline sample relative to the sequence of the appropriate HCV subtype reference sequence: genotype 1a H77 (GenBank accession number NC_004102), genotype 1b Con1 (GenBank accession number AJ238799), genotype 2a JFH-1 (GenBank accession number AB047639), genotype 2b HC-J8 (GenBank accession number D10988), genotype 3a S52 (GenBank accession number GU814263), genotype 4a ED43 (GenBank accession number GU814265), genotype 4d QC382 (GenBank accession number FJ462437), and genotype 5a SA13 (GenBank accession number AF064490). […] All DNA sequencing was performed by the Sanger sequencing method.

The subject of experiment [9] is HCV subgenomic stable replicon GT2a JFH-1. Format: cell-based, Hepatitis C virus. Particulars: GT2a JFH-1 stable replicon, 0% human plasma; read-out: Mean EC50 ± SD. An excerpt: (§3) Five of these nine cell lines have been described previously, including those transfected with genotypes 1a H77, 1b Con1, 3a, 4a, and 6a ([28]). […] The genotype 2b and 6e NS3 sequences were each synthetically constructed based on a consensus sequence derived from the alignment of 15 genotype 2b and 4 genotype 6e sequences, respectively. All replicon constructs were bicistronic subgenomic replicons similar to those described by Bartenschlager and coworkers, and the replicon cell lines were generated by introducing these constructs into cells of an Huh-7 human hepatoma-derived cell line ([50]). The inhibitory effect of the PIs on HCV replication in replicon cells was determined in Dulbecco's modified Eagle medium containing 5% fetal bovine serum with or without 40% human plasma (Bioreclamation, Westbury, NY). The EC50s were determined using nonlinear regression curve fitting as described previously ([33]).

For experiment [10], the system named is HCV subgenomic stable replicon GT1b Con1. Format: cell-based, Hepatitis C virus. Particulars: 0% human plasma, read-out: Mean EC50 ± SD.
Text: as §3

Experiment [11] concerns HCV subgenomic stable replicon GT1a H77. Format: cell-based, Hepatitis C virus. Particulars: 0% human plasma, read-out: Mean EC50 ± SD.
Text: as §3

Read-outs that look alike come from different tables or passages of the source. A value given as a limit tells only on which side of the number the result lay.

As for `Cc1cnc(C(=O)N[C@H]2CCCCC/C=C\[C@@H]3C[C@@]3(C(=O)NS(=O)(=O)C3CC3)NC(=O)[C@@H]3C[C@@H](Oc4nc5ccccc5c5ccccc45)CN3C2=O)cn1` [Paritaprevir], the “Fold decrease in susceptibility” value in experiment [1] (R155 substitutions in genotypes 1, 3 and 4) is 5.2- to 59 fold. In experiment [1] (replicons with A156 substitutions in genotypes 1 to 4), the “Fold reduction in antiviral activity, range” value is 1.7- to 155 fold.

Consider `CC(C)(C)[C@@H]1NC(=O)O[C@@H]2CCC[C@H]2OC/C=C/C(F)(F)c2nc3ccccc3nc2O[C@@H]2C[C@@H](C(=O)N[C@]3(C(=O)NS(=O)(=O)C4(C)CC4)C[C@H]3C(F)F)N(C2)C1=O` [Glecaprevir, (3aR,7S,10S,12R,21E,24aR)-7-tert-butyl-N-[(1R,2R)-2-(difluoromethyl)-1-{[(1-methylcyclopropyl)sulfonyl]carbamoyl}cyclopropyl]-20,20-difluoro-5,8-dioxo-2,3,3a,5,6,7,8,11,12,20,23,24a-dodecahydro-1H,10H-9,12-methanocyclopenta[18,19][1,10,17,3,6]trioxadiazacyclononadecino[11,12-b]quinoxaline-10-carboxamide], for which the EC50 (commonly the concentration needed to bring the measured effect to its halfway point) in [2] is 1.4 to 3.2 nM; in experiment [3] it was over 22000 nM; in experiment [8] (read-out: EC50 Median, subtype 4a, T54S, 1 sample), 0.44 nM; in experiment [8] (read-out: EC50 Median, subtype 4a, no polymorphism, 5 samples), 0.39 nM; in experiment [8] (read-out: EC50 Range, subtype 4a, no polymorphism, 5 samples), 0.31 to 0.55 nM. Moreover, the “Mean maximal decrease in HCV plasma viral load from baseline” value in [4] is listed as 3.8 to 4.3 log10 IU/ml. In addition, the IC50 – broadly, the point on the concentration scale where inhibition reaches its midpoint – in experiment [5] amounted to 11.3 ± 1.8 nM; in [6], 3.8 ± 0.96 nM; in [7] it was 8.9 ± 1.6 nM.

On to `C=C[C@@H]1C[C@]1(NC(=O)[C@@H]1C[C@@H]2CN1C(=O)[C@H](C(C)(C)C)NC(=O)O[C@@H]1C[C@H]1CCCCCc1nc3ccc(OC)cc3nc1O2)C(=O)NS(=O)(=O)C1CC1` [Grazoprevir], for which the EC50 in experiment [9] is 8.6 ± 3 nM; in [10], 1 ± 0.17 nM; in experiment [11] it was 0.37 ± 0.05 nM.

Source of the values: publication PMC5740381 (Antimicrobial Agents and Chemotherapy, 2017).
